Measured values reported in patent publication US10611740B2, “Aryl dihydro-2H-benzo[b][1,4]oxazine sulfonamide and related compounds for use as agonists of RORγ and the treatment of disease” (Lycera Corporation, priority 2015, dated 2020).

Columns and labels:
Gal4-RORγ-LBD = biological target: T1, Gal4-RORγ-LBD (Homo sapiens, UniProt P51449); assay: Gal4-RORγ Luciferase Reporter Assay in HEK-293T Cells; type: cell-based; conditions: HEK-293 cells
T1 construct: expressed in transfected cells; host or cells: HEK-293 cells (pcDNA3.1neo plasmid)
T1 sequence (P51449 269-508 limits assumed): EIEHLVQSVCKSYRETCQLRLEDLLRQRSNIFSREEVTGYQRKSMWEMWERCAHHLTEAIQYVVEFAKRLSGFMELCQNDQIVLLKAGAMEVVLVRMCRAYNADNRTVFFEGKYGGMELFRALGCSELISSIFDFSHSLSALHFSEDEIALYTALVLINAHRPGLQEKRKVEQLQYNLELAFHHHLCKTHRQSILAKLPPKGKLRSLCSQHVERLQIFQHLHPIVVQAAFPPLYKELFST
How it was run: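 HEK-293 cells were transiently co-transfected with Gal4-RORγ-LBD and pGL4.31 Gal4-luciferase, with ursolic acid added at 2 μM final. Compounds were incubated overnight at 37° C. in 0.2% DMSO and luminescence read with One-Glo. Max Response is the upper plateau of a 4-parameter logistic fit, with signal lacking ursolic acid or compound set to 100.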

RORγ-LBD = biological target: T2, RORγ-LBD (Homo sapiens, UniProt P51449); assay: RORγ-Ligand Binding Domain (LBD) TR-FRET Assay; type: biochemical;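 on TR-FRET Assay Max Response: 665/615 nm ratio relative to signal without ursolic acid or compound set at 100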
T2 construct: made in house; host or cells: SF9 cells (baculovirus)
T2 sequence (P51449 269-508 limits assumed): T1 sequence (P51449 269-508 limits assumed)
How it was run: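 His-tagged RORγ-LBD from SF9 baculovirus lysate, ~3 nM final, in 50 mM Tris pH 7.0, 50 mM KCl, 1 mM EDTA, 0.1 mM DTT, 0.01% BSA. Biotinylated SRC1 LXXLL peptide at 200 nM final with 2 μM ursolic acid; TR-FRET read-out, 1% DMSO final.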

[1] = luciferase reporter, with 2 μM ursolic acid

EC50 (Gal4-RORγ-LBD; 2 μM ursolic acid) [nM] | EC50 (RORγ-LBD) [nM] | EC50 (Gal4-RORγ-LBD; [1]) [nM] | Structure (SMILES) | Gal4-RORγ Assay Max Response (Gal4-RORγ-LBD; 2 μM ursolic acid) | TR-FRET Assay Max Response (RORγ-LBD) | Gal4-RORγ Assay Max Response (Gal4-RORγ-LBD; [1])
< 500 | < 500 | – | Cc1cc(C)cc(-c2ccc3c(c2)N(S(=O)(=O)c2cccc(C(F)(F)F)c2)C[C@H](CC2(C(=O)O)CCOCC2)O3)c1 [Compound 78G, (S)-4-((6-(3,5-dimethylphenyl)-4-((3-(trifluoromethyl)phenyl)-sulfonyl)-3,4-dihydro-2H-benzo[b][1,4]oxazin-2-yl)methyl)tetrahydro-2H-pyran-4-carboxylic acid] | ** (The symbol “**” indicates a value in the range of greater than 90 to 150) | ** (The symbol “**” indicates a value in the range of greater than 90 to 150) | –
– | < 500 | < 500 | Cc1c(F)cccc1-c1ccc2c(c1)N(S(=O)(=O)c1cccc(C(F)(F)F)c1)C[C@H](CCC(=O)O)O2 [Compound 4AG, (S)-3-(6-(3-fluoro-2-methylphenyl)-4-((3-(trifluoromethyl)phenyl)sulfonyl)-3,4-dihydro-2H-benzo[b][1,4]oxazin-2-yl)propanoic acid] | – | **** (The symbol “****” indicates a value greater than 200) | ** (The symbol “**” indicates a value in the range of greater than 90 to 150)
